“And” between values parts separate entries of the source, which are not always exact repeats. Equal entries are not always repeated. HELM strings list units from the 5' end as sugar, base in round brackets, then linkage (d deoxyribose, r ribose, m 2'-O-methyl, p phosphodiester). Strings are as the collection lists them, not checked against the first reports. ss, as = sense and antisense strand; [lna] = locked nucleic acid (LNA); [una] = unlocked nucleic acid; [fl2r] = 2'-fluoro

Target mRNA knockdown data for 20 substances are collected here from the OligoGym collection.
Also: test system not given here.

The conditions of the series: siRNA.
“RNA1{r(A)p.r(A)p.r(C)p.r(C)p.r(C)p.r(A)p.r(C)p.r(C)p.r(A)p.r(C)p.r(A)p.r(G)p.r(C)p.m(U)p.r(A)p.r(G)p.r(A)p.r(A)p.r(C)p.r(U)p.r(U)}|RNA2{r(A)p.r(A)p.r(G)p.r(U)p.r(U)p.r(C)p.r(U)p.r(A)p.r(G)p.r(C)p.r(U)p.r(G)p.r(U)p.r(G)p.r(G)p.r(U)p.r(G)p.r(G)p.r(G)p.r(U)p.r(U)}$$$RNA1{StrandType:ss}|RNA2{StrandType:as}$”: the target mRNA knockdown was 84% and 82%. The same measure for “RNA1{r(G)p.r(U)p.r(A)p.r(U)p.r(G)p.r(A)p.r(C)p.r(C)p.r(G)p.r(A)p.r(C)p.r(U)p.r(A)p.r(C)p.r(G)p.r(C)p.r(G)p.r(U)p.r(A)p.r(T)p.r(T)}|RNA2{r(U)p.r(U)p.r(C)p.r(A)p.r(G)p.r(U)p.r(G)p.r(U)p.r(G)p.r(A)p.r(U)p.r(G)p.r(A)p.r(C)p.r(A)p.r(C)p.r(U)p.r(U)p.[una](G)p.r(T)p.r(T)}$$$RNA1{StrandType:ss}|RNA2{StrandType:as}$”: 82%; for “RNA1{r(G)p.m(U)p.r(A)p.r(C)p.r(U)p.r(C)p.r(U)p.r(G)p.r(A)p.r(U)p.r(G)p.r(A)p.r(G)p.r(G)p.r(A)p.r(A)p.r(G)p.r(A)p.r(G)p.r(T)p.r(T)}|RNA2{r(C)p.r(U)p.r(C)p.r(U)p.r(U)p.r(C)p.r(C)p.r(U)p.r(C)p.r(A)p.r(U)p.r(C)p.r(A)p.r(G)p.r(A)p.r(G)p.r(U)p.r(A)p.r(C)p.r(T)p.r(T)}$$$RNA1{StrandType:ss}|RNA2{StrandType:as}$”: 69%. The same measure for “RNA1{[lna](A)p.r(A)p.r(A)p.r(C)p.r(A)p.r(U)p.r(G)p.r(C)p.r(A)p.r(G)p.r(A)p.r(A)p.r(A)p.r(A)p.r(U)p.r(G)p.r(C)p.r(U)p.r(G)p.[lna](T)p.[lna](T)}|RNA2{r(C)p.r(A)p.r(G)p.r(C)p.r(A)p.r(U)p.r(U)p.r(U)p.r(U)p.r(C)p.r(U)p.r(G)p.r(C)p.r(A)p.r(U)p.r(G)p.r(U)p.r(U)p.r(U)p.r(T)p.r(T)}$$$RNA1{StrandType:ss}|RNA2{StrandType:as}$”: 82%; for “RNA1{r(G)p.r(A)p.r(A)p.m(U)p.r(A)p.r(A)p.r(C)p.r(C)p.m(U)p.r(G)p.r(A)p.r(A)p.r(C)p.r(G)p.r(U)p.m(C)p.r(A)p.r(C)p.r(C)p.r(T)p.r(T)}|RNA2{r(G)p.r(G)p.m(U)p.r(G)p.r(A)p.r(C)p.r(G)p.r(U)p.r(U)p.m(C)p.r(A)p.r(G)p.r(G)p.r(U)p.m(U)p.r(A)p.r(U)p.r(U)p.r(C)p.r(T)p.r(T)}$$$RNA1{StrandType:ss}|RNA2{StrandType:as}$”: 51% and 69%; for “RNA1{r(C)p.[fl2r](U)p.r(G)p.r(A)p.r(C)p.r(C)p.r(G)p.r(G)p.r(A)p.r(A)p.[fl2r](G)p.r(C)p.r(G)p.r(C)p.r(U)p.[fl2r](U)p.r(A)p.r(A)p.r(A)p.r(T)p.r(T)}|RNA2{r(U)p.r(U)p.[fl2r](U)p.r(A)p.r(A)p.r(G)p.r(C)p.r(G)p.r(C)p.r(U)p.r(U)p.r(C)p.r(C)p.r(G)p.r(G)p.r(U)p.[fl2r](C)p.r(A)p.r(G)p.r(T)p.r(T)}$$$RNA1{StrandType:ss}|RNA2{StrandType:as}$”: 85%. “RNA1{r(A)p.r(G)p.r(A)p.r(G)p.r(G)p.r(A)p.r(C)p.r(C)p.m(U)p.r(A)p.r(G)p.r(A)p.r(A)p.r(G)p.r(G)p.r(C)p.r(G)p.r(G)p.r(C)p.r(T)p.r(T)}|RNA2{r(G)p.r(C)p.r(C)p.r(G)p.r(C)p.r(C)p.m(U)p.m(U)p.r(C)p.m(U)p.r(A)p.r(G)p.r(G)p.m(U)p.r(C)p.r(C)p.m(U)p.r(C)p.m(U)p.r(T)p.r(T)}$$$RNA1{StrandType:ss}|RNA2{StrandType:as}$” had a target mRNA knockdown of 72%.

As for “RNA1{r(A)p.r(A)p.r(A)p.r(C)p.r(C)p.r(C)p.r(C)p.m(U)p.r(A)p.r(G)p.r(A)p.r(G)p.r(G)p.r(G)p.m(C)p.r(A)p.r(A)p.r(G)p.r(U)p.r(T)p.r(T)}|RNA2{r(A)p.r(C)p.r(U)p.m(U)p.r(G)p.r(C)p.r(C)p.r(C)p.r(U)p.r(C)p.m(U)p.r(A)p.r(G)p.r(G)p.r(G)p.r(G)p.r(U)p.r(U)p.r(U)p.r(T)p.r(T)}$$$RNA1{StrandType:ss}|RNA2{StrandType:as}$”, the target mRNA knockdown was 78%. Regarding “RNA1{r(C)p.r(C)p.r(G)p.r(A)p.r(G)p.r(A)p.r(G)p.m(C)p.r(U)p.r(C)p.m(U)p.r(C)p.r(C)p.m(U)p.r(A)p.r(C)p.r(C)p.r(U)p.r(U)p.r(T)p.r(T)}|RNA2{r(A)p.r(A)p.r(G)p.r(G)p.m(U)p.r(A)p.r(G)p.r(G)p.r(A)p.r(G)p.r(A)p.r(G)p.r(C)p.r(U)p.r(C)p.r(U)p.r(C)p.r(G)p.r(G)p.r(T)p.r(T)}$$$RNA1{StrandType:ss}|RNA2{StrandType:as}$”, the target mRNA knockdown is 72%. Next, “RNA1{r(U)p.m(U)p.m(G)p.r(G)p.r(G)p.r(G)p.m(A)p.m(A)p.r(G)p.r(C)p.r(G)p.r(G)p.r(C)p.r(C)p.r(G)p.r(G)p.r(C)p.r(G)p.r(G)p.r(T)p.r(T)}|RNA2{r(C)p.r(C)p.r(G)p.r(C)p.r(C)p.r(G)p.r(G)p.r(C)p.r(C)p.r(G)p.r(C)p.r(U)p.r(U)p.r(C)p.r(C)p.r(C)p.m(C)p.r(A)p.r(A)p.r(T)p.r(T)}$$$RNA1{StrandType:ss}|RNA2{StrandType:as}$”: 78%. The same measure for “RNA1{r(C)p.r(U)p.r(U)p.r(A)p.r(C)p.r(G)p.r(C)p.r(U)p.r(G)p.r(A)p.r(G)p.r(U)p.r(A)p.r(C)p.r(U)p.r(U)p.r(C)p.r(G)p.r(A)p.r(T)p.r(T)}|RNA2{r(T)p.r(C)p.r(G)p.r(A)p.r(A)p.r(G)p.r(U)p.r(A)p.r(C)p.r(U)p.r(C)p.r(A)p.r(G)p.r(C)p.r(G)p.[lna](T)p.r(A)p.r(A)p.r(G)p.[lna](T)p.[lna](T)}$$$RNA1{StrandType:ss}|RNA2{StrandType:as}$”: 83%. As to “RNA1{m(A)p.r(U)p.m(G)p.r(G)p.m(G)p.r(A)p.m(G)p.r(A)p.m(A)p.r(G)p.m(U)p.r(A)p.m(G)p.r(U)p.m(C)p.r(C)p.m(C)p.r(C)p.r(C)p.r(T)p.r(T)}|RNA2{r(G)p.r(G)p.r(G)p.r(G)p.r(G)p.r(A)p.r(C)p.r(U)p.r(A)p.r(C)p.r(U)p.r(U)p.r(C)p.r(U)p.r(C)p.r(C)p.r(C)p.r(A)p.r(U)p.r(T)p.r(T)}$$$RNA1{StrandType:ss}|RNA2{StrandType:as}$”, the target mRNA knockdown amounted to 71%.

In turn, “RNA1{r(A)p.r(G)p.[fl2r](U)p.r(A)p.r(A)p.r(U)p.r(C)p.r(C)p.r(G)p.r(G)p.r(A)p.r(C)p.r(U)p.[fl2r](C)p.r(A)p.r(A)p.r(C)p.r(U)p.r(C)p.r(T)p.r(T)}|RNA2{r(G)p.r(A)p.r(G)p.r(U)p.[fl2r](U)p.r(G)p.r(A)p.r(G)p.r(U)p.r(C)p.r(C)p.r(G)p.r(G)p.r(A)p.r(U)p.[fl2r](U)p.r(A)p.r(C)p.r(U)p.r(T)p.r(T)}$$$RNA1{StrandType:ss}|RNA2{StrandType:as}$” returned a target mRNA knockdown of 68%.

“RNA1{r(A)p.r(G)p.r(A)p.r(G)p.r(U)p.m(U)p.r(G)p.r(G)p.r(G)p.r(A)p.r(U)p.m(U)p.r(A)p.r(G)p.r(G)p.r(G)p.r(C)p.r(U)p.r(U)p.r(T)p.r(T)}|RNA2{r(A)p.r(A)p.r(G)p.r(C)p.r(C)p.r(C)p.m(U)p.r(A)p.r(A)p.r(U)p.r(C)p.r(C)p.m(C)p.r(A)p.r(A)p.r(C)p.r(U)p.r(C)p.r(U)p.r(T)p.r(T)}$$$RNA1{StrandType:ss}|RNA2{StrandType:as}$”: the target mRNA knockdown turned out to be 68%. Consider “RNA1{[fl2r](A)p.r(G)p.[fl2r](A)p.r(A)p.[fl2r](G)p.r(U)p.[fl2r](A)p.r(C)p.[fl2r](C)p.r(A)p.[fl2r](G)p.r(G)p.[fl2r](A)p.r(G)p.[fl2r](G)p.r(C)p.[fl2r](G)p.r(U)p.[fl2r](U)p.r(T)p.r(T)}|RNA2{r(A)p.r(A)p.r(C)p.[fl2r](G)p.r(C)p.r(C)p.r(U)p.r(C)p.r(C)p.r(U)p.[fl2r](G)p.[fl2r](G)p.r(U)p.r(A)p.r(C)p.r(U)p.r(U)p.r(C)p.r(U)p.r(T)p.r(T)}$$$RNA1{StrandType:ss}|RNA2{StrandType:as}$”, for which the target mRNA knockdown was 39%. Take “RNA1{m(C)p.r(U)p.m(C)p.r(C)p.m(G)p.r(A)p.m(C)p.r(A)p.m(G)p.r(A)p.m(U)p.r(G)p.m(A)p.r(A)p.m(G)p.r(G)p.m(A)p.r(A)p.m(A)p.r(T)p.r(T)}|RNA2{r(U)p.r(U)p.r(U)p.r(C)p.r(C)p.r(U)p.r(U)p.r(C)p.m(A)p.r(U)p.r(C)p.r(U)p.r(G)p.r(U)p.r(C)p.r(G)p.r(G)p.m(A)p.r(G)p.r(T)p.r(T)}$$$RNA1{StrandType:ss}|RNA2{StrandType:as}$”: the target mRNA knockdown came to 46%. “RNA1{r(C)p.r(G)p.r(A)p.r(A)p.r(A)p.r(G)p.r(U)p.r(G)p.r(U)p.r(A)p.r(U)p.r(C)p.r(C)p.r(G)p.r(A)p.r(A)p.r(G)p.r(A)p.r(C)p.r(T)p.r(T)}|RNA2{r(G)p.r(U)p.r(C)p.r(U)p.r(U)p.r(C)p.r(G)p.r(G)p.r(A)p.[fl2r](U)p.r(A)p.r(C)p.r(A)p.r(C)p.r(U)p.r(U)p.r(U)p.r(C)p.r(G)p.r(T)p.r(T)}$$$RNA1{StrandType:ss}|RNA2{StrandType:as}$” had a target mRNA knockdown of 69%.

For “RNA1{[lna](T)p.r(G)p.r(A)p.r(G)p.r(A)p.r(G)p.r(A)p.r(A)p.r(A)p.r(G)p.r(C)p.r(A)p.r(C)p.r(A)p.r(G)p.r(A)p.r(A)p.r(A)p.r(A)p.[lna](T)p.[lna](T)}|RNA2{[lna](T)p.r(U)p.r(U)p.r(U)p.r(C)p.r(U)p.r(G)p.r(U)p.r(G)p.r(C)p.r(U)p.r(U)p.r(U)p.r(C)p.r(U)p.r(C)p.r(U)p.r(C)p.r(A)p.[lna](T)p.[lna](T)}$$$RNA1{StrandType:ss}|RNA2{StrandType:as}$”, the target mRNA knockdown was 67% and 72%. On to “RNA1{m(G)p.r(G)p.m(C)p.r(C)p.m(A)p.r(A)p.m(A)p.r(G)p.m(U)p.r(A)p.m(A)p.r(U)p.m(C)p.r(G)p.m(U)p.r(G)p.m(G)p.r(U)p.m(U)p.r(T)p.r(T)}|RNA2{r(A)p.r(A)p.r(C)p.r(C)p.r(A)p.r(C)p.r(G)p.r(A)p.r(U)p.r(U)p.r(A)p.r(C)p.r(U)p.r(U)p.r(U)p.r(G)p.r(G)p.r(C)p.r(C)p.r(T)p.r(T)}$$$RNA1{StrandType:ss}|RNA2{StrandType:as}$”, for which the target mRNA knockdown stood at 37%. Substance “RNA1{m(A)p.r(A)p.m(A)p.r(C)p.m(C)p.r(C)p.m(C)p.r(U)p.m(A)p.r(G)p.m(A)p.r(G)p.m(G)p.r(G)p.m(C)p.r(A)p.m(A)p.r(G)p.m(U)p.r(T)p.r(T)}|RNA2{r(A)p.r(C)p.r(U)p.r(U)p.r(G)p.r(C)p.r(C)p.r(C)p.r(U)p.r(C)p.r(U)p.r(A)p.r(G)p.r(G)p.r(G)p.r(G)p.r(U)p.r(U)p.r(U)p.r(T)p.r(T)}$$$RNA1{StrandType:ss}|RNA2{StrandType:as}$” yielded a target mRNA knockdown of 62%.
